In assay [1] the test system is BxPC-3 pancreatic carcinoma cells. Kind of assay: Chou-Talalay combination assay, Cell Titer Glo. The following applies: combination with pyrvinium pamoate, 72 hour incubation. In general terms: ATP-based viability assays read luminescence as a measure of living cells.
Experimental: (§1) Following a 72 hour incubation, cell viability was determined using Cell Titer Glo.
The subject of assay [2] is COV362 ovarian carcinoma cells. Description: Chou-Talalay combination assay, Cell Titer Glo. The following applies: combination with pyrvinium pamoate, 72 hour incubation. Format: cell-based.
Experimental: as §1
In assay [3] the test system is IMR-32 neuroblastoma cells. Description: Chou-Talalay combination assay, Cell Titer Glo. Format: cell-based. The following applies: combination with pyrvinium pamoate, 72 hour incubation.
Experimental: as §1
For assay [4], the system named is SW-1271 small cell lung carcinoma cells. Description: Chou-Talalay combination assay, Cell Titer Glo. Type of assay: cell-based. Conditions: combination with pyrvinium pamoate, 72 hour incubation.
Experimental: as §1
Assay [5] deals with Hs766t pancreatic carcinoma cells. Kind of assay: Chou-Talalay combination assay, Cell Titer Glo. Format: cell-based. The following applies: 72 hour incubation; for CI range: combination with pyrvinium pamoate.
Experimental: as §1
Assay [6] concerns TFK-1 cholangiocarcinoma cells. Description: Chou-Talalay combination assay, Cell Titer Glo. Conditions: 72 hour incubation; for CI range: combination with pyrvinium pamoate. Format: cell-based.
Experimental: as §1
Assay [7] deals with CHP-212 neuroblastoma cells. Kind of assay: Chou-Talalay combination assay, Cell Titer Glo. Type of assay: cell-based. The following applies: 72 hour incubation; for CI range: combination with pyrvinium pamoate.
Experimental: as §1
Assay [8] relates to CCC-5 cholangiocarcinoma cells. Kind of assay: Chou-Talalay combination assay, Cell Titer Glo. Format: cell-based. Conditions: 72 hour incubation; for CI range: combination with pyrvinium pamoate.
Experimental: as §1
Assay [9] concerns SK-LMS-1 leiomyosarcoma cells. Kind of assay: Chou-Talalay combination assay, Cell Titer Glo. Format: cell-based. The following applies: combination with pyrvinium pamoate, 72 hour incubation.
Experimental: as §1
For assay [10], the system named is Rh30 rhabdomyosarcoma cells. Description: Chou-Talalay combination assay, Cell Titer Glo. Format: cell-based. The following applies: combination with pyrvinium pamoate, 72 hour incubation.
Experimental: as §1
Assay [11] relates to DMS-114 small cell lung carcinoma cells. Description: Chou-Talalay combination assay, Cell Titer Glo. Type of assay: cell-based. The following applies: combination with pyrvinium pamoate, 72 hour incubation.
Experimental: as §1
In assay [12] the test system is GIST-1 gastrointestinal stromal tumor cells. Kind of assay: Chou-Talalay combination assay, Cell Titer Glo. Format: cell-based. Conditions: combination with pyrvinium pamoate, 72 hour incubation.
Experimental: as §1
For assay [13], the system named is PC12 pheochromocytoma/paraganglioma cells. Conditions: combination with pyrvinium pamoate, 72 hour incubation.
Experimental: as §1
The subject of assay [14] is TOV-112D ovarian carcinoma cells. Kind of assay: Chou-Talalay combination assay, Cell Titer Glo. The following applies: 72 hour incubation. Type of assay: cell-based.
Experimental: as §1
In assay [15] the test system is UM-Chor1 chordoma cell line. Kind of assay: Chou-Talalay combination assay, Cell Titer Glo. The following applies: combination with pyrvinium pamoate, 72 hour incubation. Format: cell-based.
Experimental: as §1
For assay [16], the system named is SK-N-AS neuroblastoma cells. Kind of assay: Chou-Talalay combination assay, Cell Titer Glo. Format: cell-based. Conditions: SK-N-AS; combination with pyrvinium pamoate; 72 hour incubation.
Experimental: as §1
The test system of assay [17] is SK-UT-1B leiomyosarcoma cells. Description: Chou-Talalay combination assay, Cell Titer Glo. Type of assay: cell-based. The following applies: combination with pyrvinium pamoate, 72 hour incubation.
Experimental: as §1
Another assay has as its system JU-77 mesothelioma cells. Kind of assay: Chou-Talalay combination assay, Cell Titer Glo. Format: cell-based. Conditions: combination with pyrvinium pamoate, 72 hour incubation.
For assay [18], the system named is SKOV-3 ovarian carcinoma cells. Description: Chou-Talalay combination assay, Cell Titer Glo. Conditions: combination with pyrvinium pamoate, 72 hour incubation. Format: cell-based.
Experimental: as §1
For assay [19], the system named is NCI-H295R adrenocortical carcinoma cells. Kind of assay: Chou-Talalay combination assay, Cell Titer Glo. Type of assay: cell-based. The following applies: combination with pyrvinium pamoate, 72 hour incubation.
Experimental: as §1
For assay [20], the system named is Kato-III gastric carcinoma cells. Kind of assay: Chou-Talalay combination assay, Cell Titer Glo. Format: cell-based.
Experimental: as §1
Another assay concerns LO-68 mesothelioma cells. Description: Chou-Talalay combination assay, Cell Titer Glo. Type of assay: cell-based. Conditions: combination with pyrvinium pamoate, 72 hour incubation.
For assay [21], the system named is SW13 adrenocortical carcinoma cells. Kind of assay: Chou-Talalay combination assay, Cell Titer Glo. Type of assay: cell-based. The following applies: 72 hour incubation.
Experimental: as §1
The test system of assay [22] is SNU-16 gastric carcinoma cells. Kind of assay: Chou-Talalay combination assay, Cell Titer Glo. Type of assay: cell-based. Conditions: combination with pyrvinium pamoate, 72 hour incubation.
Experimental: as §1
Assay [23] has as its system TC-71 Ewing's sarcoma cells. Description: Chou-Talalay combination assay, Cell Titer Glo. Type of assay: cell-based. Conditions: 72 hour incubation.
Experimental: as §1
Assay [24] relates to carcinoid tumor cell line STC-1. Description: Chou-Talalay combination assay, Cell Titer Glo. Format: cell-based. The following applies: combination with pyrvinium pamoate, 72 hour incubation.
Experimental: as §1
The test system of assay [25] is Rh41 rhabdomyosarcoma cells. Description: Chou-Talalay combination assay, Cell Titer Glo. Format: cell-based. Conditions: combination with pyrvinium pamoate, 72 hour incubation.
Experimental: as §1
In assay [26] the test system is SK-UT-1 leiomyosarcoma cells. Description: Chou-Talalay combination assay, Cell Titer Glo. Type of assay: cell-based. The following applies: combination with pyrvinium pamoate, 72 hour incubation.
Experimental: as §1
Assay [27] deals with TC-32 Ewing's sarcoma cells. Description: Chou-Talalay combination assay, Cell Titer Glo. Conditions: combination with pyrvinium pamoate, 72 hour incubation. Format: cell-based.
Experimental: as §1
Assay [28] relates to HepG2 hepatocellular carcinoma cells. Kind of assay: Chou-Talalay combination assay, Cell Titer Glo. Conditions: combination with pyrvinium pamoate, 72 hour incubation.
Experimental: as §1
Assay [29] has as its system HepG2-C3A hepatocellular carcinoma cells. Kind of assay: Chou-Talalay combination assay, Cell Titer Glo. The following applies: combination with pyrvinium pamoate, 72 hour incubation.
Experimental: as §1
Assay [30] relates to Flo-1 esophageal carcinoma cells. Kind of assay: Chou-Talalay combination assay, Cell Titer Glo. Format: cell-based. The following applies: combination with pyrvinium pamoate, 72 hour incubation.
Experimental: as §1
Assay [31] relates to HCT116 colorectal carcinoma cells. Description: Chou-Talalay combination assay, Cell Titer Glo. Type of assay: cell-based. The following applies: combination with pyrvinium pamoate, 72 hour incubation.
Experimental: as §1
Assay [32] has as its system OE-33 esophageal carcinoma cells. Kind of assay: Chou-Talalay combination assay, Cell Titer Glo. Type of assay: cell-based. The following applies: combination with pyrvinium pamoate, 72 hour incubation.
Experimental: as §1
Assay [33] deals with rare cancer tumor cell lines. Description: Cell viability, panel of rare cancer tumor cell lines. Type of assay: cell-based.
Experimental: In all cases, including those described below, the viable cells were determined using the CellTiter Glo® kit and a dose response curve to calculate the IC50 was generated using the PRISM software.
Setting [34] is: combination with pyrvinium pamoate.

“And” between values parts separate entries of the source, which are not always exact repeats. Equal entries are not always repeated. Where two headings read alike, the source gives them in different places.

The values that follow come from patent US10933061B2 (Shepherd Therapeutics, Inc., priority 2017, dated 2021).

Experimental for JU-77 mesothelioma cells: as §1
Experimental for LO-68 mesothelioma cells: as §1

On to `CCN1CCN(Cc2ccc(Nc3ncc(F)c(-c4cc(F)c5nc(C)n(C(C)C)c5c4)n3)nc2)CC1` [Abemaciclib], for which the CI range in assay [1] is 0.417-0.895; in assay [2] it was 0.144-0.714; in assay [3], “(0.485-0.860)”; in assay [4], 0.183-0.889; in assay [5], 0.587-0.863 and 0.304-0.879; in assay [6] it was 0.522-0.884. The CI range in [7] was 0.076-0.772; in assay [8], 0.628-0.841; in assay [9], 0.350-0.808; in assay [10] it was 0.148-0.886; in assay [11] it was 0.327-0.876; in assay [12] it was 0.249-0.699.
As to `CN(C)/N=N/c1[nH]cnc1C(N)=O` [Dacarbazine], the CI range in assay [13] is reported as 0.550-0.818.
Regarding `COc1cccc2c1C(=O)c1c(O)c3c(c(O)c1C2=O)C[C@@](O)(C(=O)CO)C[C@@H]3O[C@H]1C[C@H](N)[C@H](O)[C@H](C)O1` [Doxorubicin], the CI range in assay [2] is listed as 0.021-0.895; in assay [15], 0.423-0.875; in assay [16], “Yes- (0.082-0.879)”; in [17], 0.352-0.739; with JU-77 mesothelioma cells, 0.444-0.889; in assay [18], “(0.017-0.870)”. For the same molecule, the CI range in [19] was 0.185-0.872; in assay [7], 0.696-0.812; in assay [8], 0.341-0.805; in assay [20] (Kato-III, combination with pyrvinium pamoate, 72 hour incubation), “Yes- (0.021-0.584)”; with LO-68 mesothelioma cells, 0.008-0.642; in assay [22], 0.614-0.878. Besides, the CI range in [24] is 0.807-0.890; in assay [25], 0.145-0.834; in assay [12] it was 0.169-0.883; in assay [26], “(0.556-0.858)”; in assay [27] it was 0.424-0.872. Besides, the “Synergy with pyrvinium pamoate” value in assay [14], in assay [6], in [21] and in [23] was “No” throughout.
Turning to `Nc1ccn([C@@H]2O[C@H](CO)[C@@H](O)C2(F)F)c(=O)n1` [Gemcitabine], the CI range in assay [1] is 0.417-0.851; in assay [17] it was 0.516-0.687; with JU-77 mesothelioma cells, 0.404-0.725; in assay [5], 0.378-0.822; in [28], 0.613-0.899; in assay [6] it was 0.290-0.851. The CI range in assay [8] is listed as 0.008-0.729; in assay [9], 0.311-0.774; with LO-68 mesothelioma cells, 0.047-0.871; in assay [26] it was “(0.118-0.888)”; in assay [29], 0.201-0.566.
With `O=C1[O][Pt]2([NH][C@@H]3CCCC[C@H]3[NH]2)[O]C1=O` [Oxaliplatin], the CI range is 0.254-0.802 in assay [1]; 0.340-0.884 in assay [5]; 0.558-0.871 in [30]; 0.354-0.865 in assay [28]; 0.375-0.889 in assay [31]; “Yes- (0.384-0.781)” in assay [20]. Further, the CI range in assay [22] was 0.083-0.831 and 0.089-0.851; in assay [32], 0.447-0.703; in [29] it was 0.307-0.870.
On to `CC[C@]1(O)C[C@H]2CN(CCc3c([nH]c4ccccc34)[C@@](C(=O)OC)(c3cc4c(cc3OC)N(C=O)[C@H]3[C@@](O)(C(=O)OC)[C@H](OC(C)=O)[C@]5(CC)C=CCN6CC[C@]43[C@@H]65)C2)C1` [Vincristine], for which the CI range is 0.347-0.869 in [1]; 0.432-0.825 in assay [2]; 0.477-0.858 in assay [14] (setting [34]); 0.249-0.560 in assay [15]; 0.453-0.827 in assay [6]; 0.752-0.827 in assay [19]. Moreover, the CI range in [13] is 0.614-0.841; in assay [9] it was 0.163-0.831; in [21] (setting [34]), 0.499-0.875; in assay [23] (setting [34]), 0.251-0.898; in assay [24], 0.036-0.854; in assay [10] it was 0.477-0.883. The CI range in assay [25] is 0.284-0.876; in [12], 0.231-0.756 and 0.150-0.772; in assay [27], 0.659-0.869. In addition, the “Synergy with pyrvinium pamoate” value in assay [5], in [7] and in assay [8] was “No” throughout.
`Cc1cc(/C=C/c2ccc3cc(N(C)C)ccc3[n+]2C)c(C)n1-c1ccccc1` [pyrvinium pamoate, 3-carboxy-1-[(3-carboxy-2-oxidonaphthalen-1-yl)methyl]naphthalen-2-olate;2-[(E)-2-(2,5-dimethyl-1-phenylpyrrol-3-yl)ethenyl]-N,N,1-trimethylquinolin-1-ium-6-amine]: the “growth of multiple rare cancer cell lines” value in [33] (FIG. 14) is “inhibits growth”. In addition, in assay [33] (several rare cancer tumor cell lines, 72 hours, read-out: IC50s ranging), the IC50 lay in the range of 2 to 1000 nM.
